According to ChEMBL document CHEMBL1142451, “The molecular interactions of buspirone analogues with the serotonin transporter” (Bioorg Med Chem, 2008):

Key:
[1] = target: Sodium-dependent serotonin transporter (Rattus norvegicus, UniProt P31652); test: Displacement of [3H]5-HT from SERT in rat cerebral cortex synaptosome membrane; type: tissue-based, Brain
[2] = target: Sodium-dependent serotonin transporter (Homo sapiens, UniProt P31645); test: Displacement of [3H]5-HT from human SERT
Chain of Sodium-dependent serotonin transporter (Homo sapiens, UniProt P31645) (P31645 whole entry): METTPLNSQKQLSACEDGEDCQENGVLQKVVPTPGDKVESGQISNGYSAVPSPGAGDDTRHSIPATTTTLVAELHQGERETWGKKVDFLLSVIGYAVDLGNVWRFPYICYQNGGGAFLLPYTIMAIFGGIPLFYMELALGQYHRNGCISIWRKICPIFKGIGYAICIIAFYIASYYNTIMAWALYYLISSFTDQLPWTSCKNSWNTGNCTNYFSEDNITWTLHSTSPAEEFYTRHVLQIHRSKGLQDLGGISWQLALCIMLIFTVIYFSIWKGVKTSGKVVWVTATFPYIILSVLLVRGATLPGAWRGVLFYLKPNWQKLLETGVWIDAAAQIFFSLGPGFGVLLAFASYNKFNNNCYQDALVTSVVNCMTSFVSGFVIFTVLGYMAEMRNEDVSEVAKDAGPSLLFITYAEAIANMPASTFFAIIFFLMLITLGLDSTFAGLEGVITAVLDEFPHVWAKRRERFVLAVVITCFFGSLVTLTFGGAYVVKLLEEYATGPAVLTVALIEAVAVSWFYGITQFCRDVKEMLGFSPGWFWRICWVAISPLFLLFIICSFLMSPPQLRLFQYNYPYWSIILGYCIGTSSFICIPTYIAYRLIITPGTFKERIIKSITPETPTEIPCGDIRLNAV

Chain of Sodium-dependent serotonin transporter (Rattus norvegicus, UniProt P31652) (P31652 whole entry): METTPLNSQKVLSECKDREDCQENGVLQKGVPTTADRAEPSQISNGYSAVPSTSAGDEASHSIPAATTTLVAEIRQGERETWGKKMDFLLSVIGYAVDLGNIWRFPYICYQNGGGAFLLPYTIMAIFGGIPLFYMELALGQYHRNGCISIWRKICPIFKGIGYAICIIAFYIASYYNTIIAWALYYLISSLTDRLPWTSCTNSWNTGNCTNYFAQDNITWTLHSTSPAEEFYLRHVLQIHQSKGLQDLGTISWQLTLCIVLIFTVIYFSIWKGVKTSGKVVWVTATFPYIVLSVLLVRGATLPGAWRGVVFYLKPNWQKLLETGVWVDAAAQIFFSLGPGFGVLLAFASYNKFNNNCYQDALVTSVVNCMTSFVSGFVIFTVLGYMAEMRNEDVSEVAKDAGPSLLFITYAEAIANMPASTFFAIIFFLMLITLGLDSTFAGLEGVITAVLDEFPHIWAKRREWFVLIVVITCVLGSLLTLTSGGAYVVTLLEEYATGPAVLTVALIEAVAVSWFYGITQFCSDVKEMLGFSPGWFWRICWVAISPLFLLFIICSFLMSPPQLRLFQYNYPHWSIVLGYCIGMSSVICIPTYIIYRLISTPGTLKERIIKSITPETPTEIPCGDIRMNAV

| IC50 [1] [µM] | IC50 [2] [µM] | Compound |
| --- | --- | --- |
| 0.112 |  | O=C1CC2(CCCC2)CC(=O)N1CCCCN1CCN(c2ccc3ccccc3n2)CC1 |
| 0.146 |  | CC1(C)CC(=O)N(CCCCN2CCN(c3ccc4ccccc4n3)CC2)C(=O)C1 |

The remaining lines, values behind:

| Compound | IC50 [1] [µM] | IC50 [2] [µM] |
| --- | --- | --- |
| CC1CN(c2ccc3ccccc3n2)CCN1CCCCN1C(=O)CC2(CCCC2)CC1=O (stereo not drawn) | 0.075 |  |
| CC1CN(c2ccc3ccccc3n2)CCN1CCCN1C(=O)c2ccccc2C1=O (stereo not drawn) |  | 0.08 |
| O=C1c2ccccc2C(=O)N1CCCCN1CCN(c2ccc3ccccc3n2)CC1 | 0.095 |  |
| CC1CN(c2ccc3ccccc3n2)CCN1CCCCN1C(=O)CCCC1=O (stereo not drawn) |  | 0.05 |
| CC1CN(c2ccc3ccccc3n2)CCN1CCCCN1C(=O)c2ccccc2C1=O (stereo not drawn) | 0.033 | 0.008 |
